Like-named read-outs stand apart in the source and are kept apart here.
What was measured:
tubulin = details: read-out: Tubulin polymerization IC50; as reported in the literature; cited from earlier work
[1] = test system: tubulin (colchicine site); details: as reported in the literature, cited from earlier work
[2] = test system: MCF-7 human breast cancer cells; assay: Growth of MCF-7 human breast cancer cells; assay type: cell-based; details: compared with CA-4

Structure (SMILES)	IC50 (tubulin)	Inhibition of binding of colchicine, % inhibition ([1]; 1 µM inhibitor)	Inhibition of binding of colchicine, % inhibition ([1]; 5 µM inhibitor)	Cytotoxic activity in MCF-7 cells (in words) [2]
COc1ccc(Sc2cc(OC)c(OC)c(OC)c2)cc1 [Compound 1]	1200 ± 100 nM	56 ± 7%	89 ± 1%	
COc1ccc(Sc2cc(OC)c(OC)c(OC)c2)cc1[N+](=O)[O-] [Compound 2]				inactive
COc1cc(SSc2cc(OC)c(OC)c(OC)c2)cc(OC)c1OC [Compound 8]				inactive
COc1ccc([Se]c2ccc(OC)cc2)cc1 [Compound 12]				inactive
COc1ccc([Se][Se]c2ccc(OC)cc2)cc1 [Compound 13]				inactive

— article PMC3774136 (Bioorganic & medicinal chemistry letters, 2013)
